According to patent publication US6479490B2, “3-indolyl-4-phenyl-1H-pyrrole-2,5-dione derivatives as inhibitors of glycogen synthase kinase-3β” (Syntex (U.S.A.) LLC, priority 2000, dated 2002):
Where a name gives a salt, the structure may show the parent alone.

Assays:
[1] = molecular target: T1, truncated form of recombinant rabbit GSK-3β enzyme (Oryctolagus cuniculus, UniProt G1T8E2); assay: Inhibition of Glycogen Synthase Kinase-3β, in vitro assay; format: biochemical; conditions: GSK-3β inhibition, 40 μM ATP, CREB-peptide substrate, 30° C. for 1 h
T1 construct: The construct was cloned in pGEX-3X vector; fused on or other part: GST tag at the N-terminus, inferred from the pGEX-3X vector and the glutathione sepharose 4B purification with glutathione elution
Experimental: The in vitro GSK-3β inhibitory activity of compounds of this invention was determined with a truncated form of recombinant rabbit GSK-3β enzyme.
The construct was cloned in pGEX-3X vector according to the procedure described in Wang, Q. M. et al., J. Biol. Chem. 269, 14566-14574 (1994). Ten amino acids at the N-terminus were deleted to obtain constitutively active GSK-3β ((see Murai H. et al., FEBS Lett. 392,153-60, (1996)). GSK-3β was expressed in BL21 DE3 cells. The cells were grown at 37° C. until they reached mid log phase and then induced with isopropyl-beta-(D)-thiogalactopyranoside (final concentration 0.4 mM) at 30° C. for 2 h. The cells were homogenized and the cell extract was loaded on a glutathione sepharose 4B column. GSK-3β was eluted with glutathione buffer (50 mM Tris pH 8 and 10 mM reduced glutathione). The eluate was collected in 3 minute fractions and assayed for GSK-3β content on a 10% SDS PAGE (polyacrylamide gel electrophoresis). Fractions above 20% peak height were pooled, aliquoted, and stored at −80° C. until used.
The GSK-3β […] was performed in 50 μl reactions in a 96 well polypropylene plate, each reaction containing 20 mM magnesium chloride, 40 μM ATP, 2 mM DTT, 88.5 μM biotinylated and phosphorylated CREB-peptide substrate (biotin-[…](PO4)YR-OH, see Wang, Q. M. et al., J. Biol. Chem. 269, 14566-14574 (1994)), [γ-^33P] ATP (1 μCi), and 2 μl of compounds of this invention in DMSO (various concentrations). 15 μl of GSK-3β (various concentrations) was added and the reaction mixture was incubated at 30° C. for 1 h. The reaction was stopped by transferring 25 μl of the reaction mixture to a phosphocellulose plate containing 130 μl of 1.85% phosphoric acid. The free radionucleotides in the membrane were washed off under vacuum with 1.85% phosphoric acid (5 times). After the last wash, the plate was transferred to an adoptor plate and 50 μl of scintillation cocktail (Microscint-20, Packard, cat. #20-133) was added to each well and the amount of radioactivity was counted in a top counter.

T1 sequence (G1T8E2 1-432): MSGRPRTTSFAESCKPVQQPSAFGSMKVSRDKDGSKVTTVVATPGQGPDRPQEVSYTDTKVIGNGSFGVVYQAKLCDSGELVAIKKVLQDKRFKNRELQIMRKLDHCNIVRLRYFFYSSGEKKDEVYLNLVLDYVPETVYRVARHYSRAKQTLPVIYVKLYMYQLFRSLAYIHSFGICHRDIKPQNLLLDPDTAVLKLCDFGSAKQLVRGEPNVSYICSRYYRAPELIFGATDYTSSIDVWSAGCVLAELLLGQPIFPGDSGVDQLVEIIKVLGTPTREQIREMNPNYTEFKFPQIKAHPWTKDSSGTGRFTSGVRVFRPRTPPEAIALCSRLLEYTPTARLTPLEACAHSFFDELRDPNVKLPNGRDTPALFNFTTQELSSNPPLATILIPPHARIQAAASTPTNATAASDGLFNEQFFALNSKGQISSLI

melting point | IC50 [1] | SMILES
58 to 65 °C | – | Cn1cc(C2=C(c3cccc(NCCCO[Si](C)(C)C(C)(C)C)c3)C(=O)NC2=O)c2ccccc21
170.3 to 170.6 °C | – | Cn1cc(C2=C(c3cccc(NCCO)c3)C(=O)NC2=O)c2ccccc21 (as salt: hydrochloride) [II-19, 3-(1-methylindol-3-yl)4-[3-(2-hydroxyethylamino)phenyl]-1H-pyrrole-2,5-dione]
220.8 to 221.2 °C | – | Cn1cc(C2=C(c3ccccc3OCC3COC(C)(C)O3)C(=O)NC2=O)c2ccccc21 (racemic) [Compound I-2, 3-(1-methylindol-3-yl)-4-[2-((RS)-2,2-dimethyl-1,3-dioxolan-4-ylmethyloxy)phenyl]-1H-pyrrole-2,5-dione]
177.7 to 178 °C | – | Cn1cc(C2=C(c3cccc(OC[C@H](O)CO)c3)C(=O)NC2=O)c2ccccc21 [II-3, 3-(1-methylindol-3-yl)-4-{3-[((R)-2-hydroxy-2-hydroxymethyl)ethyloxy]phenyl}-1H-pyrrole-2,5-dione]
160 to 163.5 °C | – | Cn1cc(C2=C(c3cccc(NCC(O)CO)c3)C(=O)NC2=O)c2ccccc21 (racemic) [II-9, 3-(1-methylindol-3-yl)-4-{3-[(2-(RS)-hydroxy-2-hydroxymethyl)ethylamino]phenyl}-1H-pyrrole-2,5-dione]
203.1 to 205.8 °C | – | CC(CO)Nc1cccc(C2=C(c3cn(C)c4ccccc34)C(=O)NC2=O)c1 (racemic) [II-22, 3-(1-methylindol-3-yl)-4-[3-(2-hydroxy-1-methylethylamino)phenyl]-1H-pyrrole-2,5-dione]
245 to 247.1 °C | 194 nM | Cn1cc(C2=C(c3ccccc3OCC(O)CO)C(=O)NC2=O)c2ccccc21 (centres unmarked) [Compound I-1, 3-(1-methylindol-3-yl)-4-{2-[(-2-hydroxy-2-hydroxymethyl)ethyloxy]-phenyl}-1H-pyrrole-2,5-dione]
151.2 to 151.7 °C | – | Cn1cc(C2=C(c3cccc(OCCCO[Si](C)(C)C(C)(C)C)c3)C(=O)NC2=O)c2ccccc21
– | 26.4 nM | Cn1cc(C2=C(c3cccc(OCCCN)c3)C(=O)NC2=O)c2ccccc21 [II-2, 3-(1-methylindol-3-yl)-4-[3-(3-aminopropyloxy)phenyl]-1H-pyrrole-2,5-dione]
118 to 125 °C | – | O=C1NC(=O)C(c2cn(CCCO)c3ccc(F)cc23)=C1c1cccc(NCC(O)CO)c1 (racemic) [III-6, 3-{3-[(2,3-dihydroxypropyl)amino]phenyl}-4-[5-fluoro-1-(3-hydroxypropyl)-1H-indol-3-yl]-1H-pyrrole-2,5-dione]
150.2 to 152.6 °C | – | Cn1cc(C2=C(c3cccc(OCCCO)c3)C(=O)NC2=O)c2ccccc21 [II-20]
– | 230 nM | O=C1NC(=O)C(c2c[nH]c3ccccc23)=C1c1cccc(OCCN2CCOCC2)c1 [III-3, 3-(1H-indol-3-yl)-4-[3-(2-morpholin-4-ylethoxy)phenyl]-1H-pyrrole-2,5-dione]
– | 133 nM | Cn1cc(C2=C(c3ccc(OC[C@@H]4COC(C)(C)O4)cc3)C(=O)NC2=O)c2ccccc21 [IV-1, 3-(1-methylindol-3-yl)-4-[4-((R)-2,2-dimethyl-1,3-dioxolan-4-ylmethyloxy)phenyl]-1H-pyrrole-2,5-dione]
205.3 to 212.6 °C | – | Cn1cc(C2=C(c3cccc(N4CCOCC4)c3)C(=O)NC2=O)c2ccccc21 (as salt: hydrochloride) [II-15, 3-(1-methylindol-3-yl)-4-(3-morpholin-4-ylphenyl)-1H-pyrrole-2,5-dione hydrochloride]
220.3 to 222.7 °C | – | Cn1cc(C2=C(c3ccc(OCC(O)CO)cc3)C(=O)NC2=O)c2ccccc21 (stereo in doubt) [IV-6, 3-(1-methylindol-3-yl)-4-{4-[((R)-2-hydroxy-2-hydroxymethyl)ethyloxy]-phenyl}-1H-pyrrole-2,5-dione]
– | 20 nM | Cn1cc(C2=C(c3cccc(OCCN)c3)C(=O)NC2=O)c2ccccc21 [II-1, 3-(1-methylindol-3-yl)-4-[3-(2-aminoethyloxy)phenyl]-1H-pyrrole-2,5-dione]
176.9 to 178.1 °C | – | Cn1cc(C2=C(c3cccc(OCC(O)CO)c3)C(=O)NC2=O)c2ccccc21 (stereo in doubt) [II-5, 3-(1-methylindol-3-yl)-4-{3-[((S)-2-hydroxy-2-hydroxymethyl)ethyloxy]-phenyl]-1H-pyrrole-2,5-dione]
186.8 to 187.4 °C | – | Cn1cc(C2=C(c3cccc(OC[C@H]4COC(C)(C)O4)c3)C(=O)NC2=O)c2ccccc21 [II-7, 3-(1-methylindol-3-yl)-4-[3-((S)-2,2-dimethyl-1,3-dioxolan-4-ylmethyloxy)phenyl]-1H-pyrrole-2,5-dione]
182.4 to 187 °C | – | Cn1cc(C2=C(c3cccc(OCCN)c3)C(=O)NC2=O)c2ccccc21 (as salt: hydrochloride) [II-1, 3-(1-methylindol-3-yl)-4-[3-(2-aminoethyloxy)phenyl]-1H-pyrrole-2,5-dione]
201 to 203 °C | – | Cn1cc(C2=C(c3cccc(NC4COC(C)(C)OC4)c3)C(=O)NC2=O)c2ccccc21 [II-10, 3-(1-methylindol-3-yl)-4-[3-(2,2-dimethyl-1,3-dioxan-5-ylamino)phenyl]-1H-pyrrole-2,5-dione]
136 to 141 °C | – | Cn1cc(C2=C(c3cccc(N4CCC(O)CC4)c3)C(=O)NC2=O)c2ccccc21 [II-29, 3-[3-(4-hydroxypiperidin-1-yl)phenyl]-4-(1-methyl-1H-indol-3-yl)-1H-pyrrole-2,5-dione]
58 to 61.5 °C | – | CC(O)CCNc1ccc(C2=C(c3cn(C)c4ccccc34)C(=O)NC2=O)cc1 (centres unmarked) [IV-4]
197.7 to 199 °C | 29.6 nM | Cn1cc(C2=C(c3cccc(OCCN4CCOCC4)c3)C(=O)NC2=O)c2ccccc21 [II-4, 3-(1-methylindol-3-yl)-4-[3-(2-morpholin-4-ylethyloxy)phenyl]-1H-pyrrole-2,5-dione]
220.8 to 221.2 °C | – | Cn1cc(C2=C(c3cccc(OCC4COC(C)(C)O4)c3)C(=O)NC2=O)c2ccccc21 (stereo in doubt) [II-6, 3-(1-methylindol-3-yl)-4-[3-((R)-2,2-dimethyl-1,3-dioxolan-4-ylmethyloxy)phenyl]-1H-pyrrole-2,5-dione]
